What all share (assay): inhibition of tumour cell growth, NCI panel, 48 h
The test system of experiment [1] is HCT-15 colon.
The subject of experiment [2] is HOP-62 NSCLC.
Experiment [3] relates to HT29 colon.
In experiment [4] the test system is MDA-MB-231 breast.
In experiment [5] the test system is MDA-MB-435.
For experiment [6], the system named is NCI-H226 lung.
The test system of experiment [7] is NCI-H460 lung.
The subject of experiment [8] is RPMI-8226 leukemia.
In experiment [9] the test system is SK-MEL-5 melanoma.
The test system of experiment [10] is T-47D breast.

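A five-concentration, 48-hour dose response in 96-well plates underlies each endpoint, interpolated linearly between surrounding concentrations. GI50 = concentration required for 50% inhibition of growth. Definition used: TGI = concentration required for complete inhibition of growth.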 A value given as a limit tells only on which side of the number the result lay.

Drawing on PubChem BioAssay (NCI), this text covers GI50 and TGI for seven molecules.

Take `O=C(Nc1ccc(Cl)cc1)c1cc2c(cc1O)[nH]c1ccccc12`: the GI50 in experiment [1] was 3.24 µM; in experiment [2] it was 2.8 µM; in experiment [3], 5.08 µM; in experiment [4], 2.24 µM; in experiment [5], 2.12 µM; in [6] it was 2.52 µM. Also, the GI50 is 3.11 µM in experiment [7], 2.71 µM in [8], 1.74 µM in experiment [9] and 2.37 µM in [10]. The TGI in experiment [1] is 13.1 µM; in [2], 6.6 µM; in experiment [3], 17.9 µM; in experiment [4] it was 6.94 µM; in experiment [5], 5.85 µM; in [6], 9.46 µM. The TGI in experiment [7] was 10.2 µM; in experiment [8], 8.45 µM; in [9], 3.41 µM; in [10], 6.78 µM.
With `CN(C)c1ccc(C(=O)c2ccc(N(C)C)c(N)c2)cc1N`, the GI50 in experiment [1] is 2.35 µM; in experiment [2], 5.91 µM; in [3], 1.14 µM; in [4], 5.81 µM; in experiment [5], 0.422 µM; in experiment [6] it was 16.8 µM. The GI50 in experiment [7] was 2.62 µM; in experiment [8], 1.33 µM; in experiment [9], 2.7 µM; in experiment [10], 4.3 µM. For the same molecule, the TGI in experiment [1] is > 100 µM; in experiment [2] it was > 100 µM; in experiment [3], 19.2 µM; in experiment [4], > 77.6 µM; in experiment [5], 1.25 µM; in experiment [6] it was > 82.5 µM. Besides, the TGI in [7] is 34.5 µM; in experiment [8] it was > 100 µM; in experiment [9] it was 34.2 µM; in [10], > 46.1 µM.
As to `CN(C)C(=S)NN=C(c1ccccn1)c1ccccn1`, the GI50 in experiment [1] was < 0.012 µM; in [2], < 0.01 µM; in experiment [3], < 0.01 µM; in [4] it was 0.0412 µM; in experiment [5], 0.076 µM; in experiment [6] it was 0.0445 µM. In addition, the GI50 is < 0.025 µM in experiment [7] and 0.0629 µM in experiment [9]. Also, the TGI was 25.5 µM in experiment [1]; 0.0273 µM in [2]; > 100 µM in experiment [3]; 27.8 µM in [4]; 16.7 µM in [5]; 12.7 µM in [6]. Moreover, the TGI in experiment [8] is > 100 µM; in experiment [9] it was 3.45 µM; in [10], > 44.9 µM.
Regarding `O=C1c2ccccc2-c2c1c1ccc([N+](=O)[O-])cc1c(=O)n2CCNCCCNCCn1c2c(c3ccc([N+](=O)[O-])cc3c1=O)C(=O)c1ccccc1-2`, the GI50 is 0.197 µM in experiment [1]; 0.742 µM in experiment [2]; 0.0105 µM in experiment [3]; 0.033 µM in experiment [4]; 1.39 µM in experiment [5]; 0.125 µM in experiment [6]. Besides, the GI50 was 2.68 µM in experiment [7], 0.00538 µM in [8], 0.347 µM in experiment [9] and 2.07 µM in experiment [10]. Also, the TGI amounted to 16.1 µM in experiment [1]; 7.51 µM in [2]; 5.52 µM in [3]; 0.53 µM in [4]; 18.1 µM in experiment [5]; 3.16 µM in [6]. Further, the TGI was determined as 18.7 µM in experiment [7], 0.139 µM in [8], 7.51 µM in experiment [9] and 11.3 µM in [10].
Regarding `CNC(=O)c1c(NC(=O)c2cccc(C(F)(F)F)c2)sc2c1CCC(=O)C2`, the GI50 in experiment [1] is 0.249 µM; in [2], 1.94 µM; in [3] it was 0.347 µM; in experiment [4], 0.332 µM; in experiment [5] it was 0.544 µM; in [6] it was 1.61 µM. The GI50 in experiment [7] is 0.365 µM; in experiment [8], 0.198 µM; in experiment [9], 0.462 µM; in [10], 0.305 µM. The TGI is 1.51 µM in experiment [1]; > 48.6 µM in experiment [2]; 1.88 µM in experiment [4]; 3.1 µM in experiment [5]; 5.71 µM in experiment [6]; > 100 µM in [7]. For the same molecule, the results for the TGI in [8], in experiment [9] and in [10] were 0.781 µM, 1.66 µM and 2.29 µM, respectively.
Regarding `CCc1ccc(-c2ccc(=O)n(-c3ccc(S(N)(=O)=O)cc3)n2)cc1`, the GI50 in experiment [1] is 0.746 µM; in experiment [2], 5.62 µM; in experiment [3] it was 0.484 µM; in experiment [4], 14.6 µM; in [5], 0.252 µM; in [6] it was 21.1 µM. For the same molecule, the GI50 in [7] is 0.97 µM; in experiment [8] it was 0.759 µM; in experiment [9], 0.659 µM; in [10], 3.85 µM. Further, the TGI in [1] was > 100 µM; in experiment [2] it was 30.5 µM; in experiment [3], > 100 µM; in experiment [4] it was > 100 µM; in experiment [5], 1.71 µM; in [6] it was > 100 µM. Also, the TGI is > 21.2 µM in experiment [7], 7.33 µM in experiment [8], > 27.6 µM in experiment [9] and > 100 µM in [10].
Take `COc1cc2c(cc1OCCCOC1=C=C=C(c3ccc4c(c3)c3cc(-c5ccc(OCCCOc6cc7c(cc6OC)C(=O)N6CCC[C@H]6C=N7)cc5)ccc3n4S(=O)(=O)c3ccc(C)cc3)C=C1)N=C[C@@H]1CCCN1C2=O`: the GI50 in experiment [1] is 7 µM; in experiment [2], 1.99 µM; in experiment [3] it was 1.44 µM; in experiment [4], 5.31 µM; in experiment [5] it was 2.07 µM; in experiment [6], 4 µM. Besides, the GI50 was 1.38 µM in [7], 0.665 µM in experiment [8], 4.26 µM in experiment [9] and 1.3 µM in [10]. The TGI was 20.3 µM in [1]; 8.6 µM in experiment [2]; > 20.5 µM in experiment [3]; 16 µM in experiment [4]; 5.25 µM in experiment [5]; 12.9 µM in experiment [6]. The TGI in [7] is 7.99 µM; in experiment [8], > 14.5 µM; in [9], 11.1 µM; in experiment [10], 19.1 µM.
